From patent US6569846B1, “Palladium-substituted bacteriochlorophyll derivatives and use thereof” (Yeda Research and Development Co. Ltd., priority 1998, dated 2003)
“And” between values parts separate entries of the source, which are not always exact repeats. Equal entries are not always repeated.

Experiments:
[1] = system: HDL, LDL, Albumin fractions of human serum; assay: Plasma lipoprotein binding (density-gradient centrifugation); format: in vitro ADME; conditions: 3 μM, 30 min at 37° C.
Description: (iv) Lipoprotein binding: Binding of Pd-BPheid to protein and lipoprotein compound of control human plasma was determined. Incubation of 250 μl plasma sample with 3 μM of the compound for 30 min at 37° C. Lipoprotein and protein components were then separated by density-gradient centrifugator. The gradients were fractionated, fractions diluted into 3 ml of 10 mM Triton X-100 detergent or of fluorescence at 750-800 nm determined upon excitation at 400 nm.

[2] = system: C3H/BA mammary carcinoma; assay: In vivo PDT of BA mammary carcinoma; design: key to Summary (cures), symbol: −: no response
Description: Photodynamic therapy parameters: Mice with tumors measuring 5-7 mm in diameter were entered into PDT experiments. Three Pd-BPheid drug doses (1, 5 and 10 mg/kg) and two light doses (100 and 300 Joules/sq.cm) were evaluated. A formulation of Pd-BPheid dissolved in Cremophor was administered by i.v. tail injection. PDT light exposure was started either 15 minutes, 1 hour or 4 hours following injection. […] A titanium sapphire laser tuned to 757 nm was used as the light source for PDT. Laser generated light was coupled into quartz fibers for delivery of light to tumors. A light power density of 75 mW/sq.cm was used. Tumor size was measured 3 days per week following PDT treatments and the percentage of tumor cures (defined as no tumor recurrence for 40 days post treatment) was determined.
In vivo PDT Response: Tables 4 and 5 hereinafter provide summaries of the PDT treatment results for C3H mice transplanted with either the BA mammary carcinoma or the RIF-1 fibrosarcoma. Each table indicates the following parameters: 1) intravenous drug dose expressed in mg/kg; 2) laser treatment parameters, including the total light dose (J/cm^2), the wavelength (757 nm), the light dose rate (mW/cm^2), and the time interval ([…], 4) toxicity (four mice died shortly after treatment), 5) tumor regrowth (consisting of the number of days between PDT treatment and tumor recurrence) and 6) the number of mice (and percentage) with Pd-BPheid PDT induced tumor cures.

[3] = system: M2R mouse melanoma cells; assay: Phototoxicity on M2R cells (Example 10, [3H]-thymidine incorporation); format: cell-based; conditions: pigments dissolved directly in culture medium containing 10% serum
Description: The diluted pigments were added and the cells were incubated in the dark for four hours at 37° C. Prior to illumination, the cells were washed once and replaced with fresh culture medium. The plates were then illuminated from the bottom for 10 minutes at room temperature and placed in the culture incubator at 37° C. in the dark. […] The following control systems were used: Dark control—untreated cells kept in the dark; Light control—cells not treated with sensitizer that were illuminated; Dark toxicity—cells treated with pigment but kept in the dark.

[4] = system: C6 glioma tumors; assay: In vivo PDT of C6 glioma tumors and metastasis formation; design: species or system CD1 nude mice; conditions: 5 mg/Kg i.v.; for tumor flattening (disappearance): 200 mw/cm^2 for 30 minutes
Description: (i) Materials: Pd-BPheid (prepared as in Example 1) or Pd-BPpheid-SerOMe 5 mg/kg in 20% Cremophor EL.
(ii) Light source: The light source was a Xenon fluorine LS3-PDT lamp (Bio-Spec, Russia), with 10 cm water filter and 720-850 nm light band.
(iv) Tumors: Mice were implanted with 10^6 C6 glioma cells in the foot of the hind leg. Tumors were treated when reached a length of 7-8 mm.
(vii) Protocol: Three groups (10 mice in each) were i.v. injected with 5 mg/Kg of sensitizer (Pd-BPheid or Pd-BPpheid-SerOMe) and immediately illuminated at 200 mw/cm^2, for 30 minutes, and the animals were allowed to recover in the cage. Groups 1 and 2: Animals which received PDT Pd-Bpheid and Pd-BPpheid-SerOMe, respectively. Tumor response and metastasis formation in groin were followed for 4 weeks. Group 3: Animals which were amputated at the ankle joint (paired with group 1) and metastasis formation in groin was followed for 4 weeks. The parameters of response to PDT were the percent of animals with tumor necrosis and disappearance, out of the total number of treated animals. Metatstasis was manifested by appearance of tumors in the groin or elsewhere. The endpoints considered were: follow up for 4 weeks, spontaneous death, tumors reached a diameter of 2 cm, metastasis, whichever came first.

[5] = 1 mg/Kg i.v., 300 J/cm^2, 757 nm, 75 mW/cm^2, 15 min. interval
[6] = 5 mg/Kg i.v., 300 J/cm^2, 757 nm, 75 mW/cm^2, 1 HR interval
[7] = 5 mg/Kg i.v., 300 J/cm^2, 757 nm, 75 mW/cm^2, 15 min. interval
[8] = 10 mg/Kg i.v., 100 J/cm^2, 757 nm, 75 mW/cm^2, 1 HR interval
[9] = 10 mg/Kg i.v., 100 J/cm^2, 757 nm, 75 mW/cm^2, 15 min. interval
[10] = 10 mg/Kg i.v., 300 J/cm^2, 757 nm, 75 mW/cm^2, 1 HR interval
[11] = 10 mg/Kg i.v., 300 J/cm^2, 757 nm, 75 mW/cm^2, 4 HR interval

CC[C@H]1C2=NC(=Cc3c(C(C)=O)c(C)c4[n]3[Pd][n]3c(c(C)c5c3=C(C3=NC(=C4)[C@@H](C)[C@@H]3CCC(=O)O)[C@@H](C(=O)OC)C5=O)=C2)[C@@H]1C [Pd-BPheid, Pd-bacteriopheophorbide a]
plasma lipoprotein binding, rank order of fractions [1]: HDL>LDL>>>Albumin | Number of Animals with Primary Tumor Regrowth (Days to Recurrence) [2, 5]: 1(1 day) | Summary (cures), symbol [2, 5]: − | Toxicity (Treatment associated death) [2, 5]: 0 | Number of Animals with Primary Tumor Regrowth (Days to Recurrence) [2, 6]: 1(11 days) | Summary (cures) % [2, 6]: 66.66% | Summary (cures), number of animals (days) [2, 6]: 2(41 days) | Toxicity (Treatment associated death) [2, 6]: 0 | Summary (cures) % [2, 7]: 100% | Summary (cures), number of animals (days) [2, 7]: 2(40 days) | Toxicity (Treatment associated death) [2, 7]: 0 | Number of Animals with Primary Tumor Regrowth (Days to Recurrence) [2, 8]: 1(5 days) | Summary (cures) % [2, 8]: 66.66% | Summary (cures), number of animals (days) [2, 8]: 2(40 days) | Toxicity (Treatment associated death) [2, 8]: 0 | Summary (cures) % [2, 9]: 100% | Summary (cures), number of animals (days) [2, 9]: 2(42 days) | Toxicity (Treatment associated death) [2, 9]: 0 | Summary (cures) % [2, 10]: 100% | Summary (cures), number of animals (days) [2, 10]: 2(41 days) and 1(41 days) | Toxicity (Treatment associated death) [2, 10]: 0 | Number of Animals with Primary Tumor Regrowth (Days to Recurrence) [2, 11]: 2(1 day) | Summary (cures), symbol [2, 11]: − | Toxicity (Treatment associated death) [2, 11]: 0 | effectiveness of PDT ([2]; 4-hour interval between drug administration and light treatment): not effective | responsiveness of BA mammary carcinoma compared with RIF-1 fibrosarcoma ([2]; comparable PDT treatments): more responsive | effectiveness of PDT ([2]; light treatments initiated within 1 hour of drug administration): effective | phototoxic activity [3]: fully active | effect of PDT on C6 glioma tumors [4]: curative | tumor flattening (disappearance) ([4]; day 11): 100% | tumor flattening (disappearance) ([4]; day 28): about 60% | frequency of metastasis after PDT ([4]; follow up for 4 weeks): up to 23%
